Data reported in patent US20100331305A1, “OXO-HETEROCYCLE FUSED PYRIMIDINE COMPOUNDS, COMPOSITIONS AND METHODS OF USE” (Genentech, Inc., priority 2009, published 2010).
pEC50, pKi: −log10 of the molar value. “And” between values parts separate entries of the source, which are not always exact repeats. Equal values may be shown once.

Tests used:
[1] = tested on: PC3 cells; assay: In vitro cell proliferation assay; assay type: cell-based, human; conditions: Homo sapiens, PC-3, with PC3 cells; values tied to compounds by order of Table 1
Experimental: c. In Vitro Cell Proliferation Assay Efficacy of Formula I compounds were measured by a cell proliferation assay employing the following protocol: 1. An aliquot of 20 μl of cell culture containing about 10^3 cells (PC3 or MDAMB361.1) in medium was deposited in each well of a 384-well, opaque-walled plate. 2. Control wells were prepared containing medium and without cells; Cells were allowed to settle overnight. 3. The compound was added to the experimental wells and incubated for 3 days. 4. The plates were equilibrated to room temperature for approximately 30 minutes. 5. A volume of CellTiter-Glo Reagent equal to the volume of cell culture medium present in each well was added. […] The contents were mixed for 2 minutes on an orbital shaker to induce cell lysis. 7. The plate was incubated at room temperature for 20 minutes to stabilize the luminescence signal. 8. Luminescence was recorded and reported in graphs as RLU=relative luminescence units. Alternatively, cells were seeded at optimal density in a 96 well plate and incubated for 4 days in the presence of test compound. Alamar BlueTM was subsequently added to the assay medium, and cells were incubated for 6 h before reading at 544 nm excitation, 590 nm emission. EC50 values were calculated using a sigmoidal dose response curve fit.

[2] = molecular target: mTOR enzyme (mTOR(1360-2549)+GBL) (Homo sapiens, UniProt P42345); assay: In vitro mTOR kinase assay (TR-FRET); assay type: biochemical; conditions: 0.25 nM mTOR+GBL, 8 uM ATP; values tied to compounds by order of Table 1; 'x or y' = two alternative values for separated diastereomers of unassigned stereochemistry; read-out: activity level (Ki) in the mTOR kinase assay
Chain of mTOR enzyme (mTOR(1360-2549)+GBL) (P42345 1360-2549, species assumed): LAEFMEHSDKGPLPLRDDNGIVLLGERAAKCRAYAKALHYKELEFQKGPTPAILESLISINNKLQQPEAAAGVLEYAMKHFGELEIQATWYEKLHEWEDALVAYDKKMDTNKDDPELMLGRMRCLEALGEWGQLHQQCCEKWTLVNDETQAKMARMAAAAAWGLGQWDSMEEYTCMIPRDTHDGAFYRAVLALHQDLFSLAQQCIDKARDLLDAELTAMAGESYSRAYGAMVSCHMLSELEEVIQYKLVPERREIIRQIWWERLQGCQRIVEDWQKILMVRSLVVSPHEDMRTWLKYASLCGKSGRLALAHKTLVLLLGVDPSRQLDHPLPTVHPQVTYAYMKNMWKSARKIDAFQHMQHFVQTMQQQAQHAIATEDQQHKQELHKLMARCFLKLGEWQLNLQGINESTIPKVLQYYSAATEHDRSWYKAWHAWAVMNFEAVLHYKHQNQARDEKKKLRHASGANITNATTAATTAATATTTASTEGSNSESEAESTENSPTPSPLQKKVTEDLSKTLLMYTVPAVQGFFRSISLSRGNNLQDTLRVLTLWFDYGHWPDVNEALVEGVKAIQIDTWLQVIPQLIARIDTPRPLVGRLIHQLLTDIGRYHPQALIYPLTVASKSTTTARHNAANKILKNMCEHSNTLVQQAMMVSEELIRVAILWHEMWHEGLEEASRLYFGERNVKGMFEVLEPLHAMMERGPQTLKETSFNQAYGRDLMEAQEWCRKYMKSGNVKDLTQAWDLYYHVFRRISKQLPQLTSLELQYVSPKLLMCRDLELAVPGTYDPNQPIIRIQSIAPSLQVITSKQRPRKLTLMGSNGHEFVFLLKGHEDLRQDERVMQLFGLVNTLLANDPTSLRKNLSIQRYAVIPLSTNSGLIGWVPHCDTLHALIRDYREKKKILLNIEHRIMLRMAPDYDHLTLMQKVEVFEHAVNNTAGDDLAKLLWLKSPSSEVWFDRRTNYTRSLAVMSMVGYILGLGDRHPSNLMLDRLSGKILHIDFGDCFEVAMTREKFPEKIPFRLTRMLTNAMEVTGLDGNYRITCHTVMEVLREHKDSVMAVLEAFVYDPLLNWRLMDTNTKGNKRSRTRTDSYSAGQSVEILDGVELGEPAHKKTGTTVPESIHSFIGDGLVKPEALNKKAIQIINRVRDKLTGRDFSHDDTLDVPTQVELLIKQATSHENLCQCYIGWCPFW
Chain of mTOR enzyme (mTOR(1360-2549)+GBL) (Q9BVC4 whole entry partner, species assumed): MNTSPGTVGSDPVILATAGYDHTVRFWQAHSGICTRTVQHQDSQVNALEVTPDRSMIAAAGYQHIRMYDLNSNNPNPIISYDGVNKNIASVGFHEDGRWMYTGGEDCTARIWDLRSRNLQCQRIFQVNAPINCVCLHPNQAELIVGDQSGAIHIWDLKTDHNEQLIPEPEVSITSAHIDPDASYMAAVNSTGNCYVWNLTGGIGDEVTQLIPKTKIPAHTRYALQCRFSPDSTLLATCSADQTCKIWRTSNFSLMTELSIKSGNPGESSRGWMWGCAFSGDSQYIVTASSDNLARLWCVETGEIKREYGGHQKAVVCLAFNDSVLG
Description: a. In Vitro mTOR Kinase Assay
The reaction is stopped by an addition of a Terbium-labeled phospho-specific antibody, e.g., Tb-labeled anti-p4E-BP1 T37/T46, (Invitrogen, product #PR8835A), EDTA, and TR-FRET buffer solution (Invitrogen, Product #PR3756B). Product formation is detected by way of time-resolved fluorescence resonance energy transfer (TR-FRET), which occurs when the phosphorylated substrate and labeled antibody are in close proximity due to phospho-specific binding. Enzymatic activity is measured as an increase in TR-FRET signal using a Perkin Elmer Envision plate reader.
Compound activity is tested in 10 point dose curves starting at the highest final concentration of 10 uM. They are serially diluted in 100% DMSO prior to further dilution with assay buffer. […] 8 μL of solution containing 2 nM Tb-anti-p4E-BP1 antibody & 10 mM EDTA diluted TR-FRET buffer is then added and incubated for 30 minutes to stop the reaction. The plate is scanned with the Envision plate reader. Ki values are calculated in Assay Explorer using the Morrison ATP-competitive tight binding equation for Ki apparent determination.

Question: How did the pEC50 [1] turn out when CCC[C@]1(C)OCc2c(N3C[C@H]4CC[C@@H](C3)O4)nc(-c3ccc(NC(=O)NCC)cc3)nc21 [Example 74 ej (S), 1-(4-((S)-4-((1R,5S)-8-oxa-3-azabicyclo[3.2.1]octan-3-yl)-7-methyl-7-propyl-5,7-dihydrofuro[3,4-d]pyrimidin-2-yl)phenyl)-3-ethylurea] was run?
Answer: 7.29

Question: CCC[C@@]1(C)OCc2c(N3C[C@H]4CC[C@@H](C3)O4)nc(-c3ccc(NC(=O)NCC)cc3)nc21 [Example 74 ej (R), 1-(4-((R)-4-((1R,5S)-8-oxa-3-azabicyclo[3.2.1]octan-3-yl)-7-methyl-7-propyl-5,7-dihydrofuro[3,4-d]pyrimidin-2-yl)phenyl)-3-ethylurea] was tested. Which pEC50 [1] did it give?
Answer: 7.72

Question: With COC1CCN(c2nc(-c3ccc(NC(=O)Nc4ccn(C)n4)cc3)nc3c2CCC2(CC2)O3)CC1 [Example 47, 1-(4-(4′-(4-methoxypiperidin-1-yl)-5′,6′-dihydrospiro[cyclopropane-1,7′-pyrano[2,3-d]pyrimidine]-2′-yl)phenyl)-3-(1-methyl-1H-pyrazol-3-yl)urea] as the compound, how does the pKi [2] read?
Answer: 6.05

Question: With C[C@H]1COCCN1c1nc(-c2ccc3nc(N)[nH]c3c2)nc2c1CCCO2 [Example 64, (S)-6-(4-(3-methylmorpholino)-6,7-dihydro-5H-pyrano[2,3-d]pyrimidin-2-yl)-1H-benzo[d]imidazol-2-amine] as the compound, how does the pKi [2] read?
Answer: 6.91

Question: How did the pKi [2] turn out when C[C@H]1COCCN1c1nc(-c2ccc(NS(=O)(=O)C3CC3)cc2)nc2c1COCC2 [Example 39, (S)—N-(4-(4-(3-methylmorpholino)-7,8-dihydro-5H-pyrano[4,3-d]pyrimidin-2-yl)phenyl)cyclopropanesulfonamide] was run?
Answer: 6.57

Question: CC1COCCN1c1nc(-c2ccc(NC(=O)NC3COC3)cc2)nc2c1C1CCC(C2)O1 (single isomer, unassigned) [Example 63 dp^2] was tested. Which pKi [2] did it give?
Answer: 8.00 and 8.70

Question: CC[C@H]1COCCN1c1nc(-c2ccc(N)nc2)nc2c1CCCO2 [Example 129, (S)-5-(4-(3-ethylmorpholino)-6,7-dihydro-5H-pyrano[2,3-d]pyrimidin-2-yl)pyridin-2-amine] was tested. Which pKi [2] did it give?
Answer: 7.96

Question: With CCNC(=O)Nc1ccc(-c2nc3c(c(N4CCOC[C@@H]4C)n2)COC3=O)cc1 [Example 90, (S)-1-ethyl-3-(4-(4-(3-methylmorpholino)-7-oxo-5,7-dihydrofuro[3,4-d]pyrimidin-2-yl)phenyl)urea] as the compound, how does the pKi [2] read?
Answer: 7.12

Question: With COC1CCN(c2nc(-c3ccc(NC(=O)NC4COC4)cc3)nc3c2CCC2(CC2)O3)CC1 [Example 46, 1-(4-(4′-(4-methoxypiperidin-1-yl)-5′,6′-dihydrospiro[cyclopropane-1,7′-pyrano[2,3-d]pyrimidine]-2′-yl)phenyl)-3-(oxetan-3-yl)urea] as the compound, how does the pKi [2] read?
Answer: 6.21

Question: CCNC(=O)Nc1ccc(-c2nc(N3CCOC[C@@H]3C)c3c(n2)[C@@](C)(CCN2CCC2)OC3)cc1 [Example 79 er (R), 1-(4-((R)-7-(2-(azetidin-1-yl)ethyl)-7-methyl-4-((S)-3-methylmorpholino)-5,7-dihydrofuro[3,4-d]pyrimidin-2-yl)phenyl)-3-ethylurea] was tested. Which pKi [2] did it give?
Answer: 7.24

Question: How did the pKi [2] turn out when COCC[C@]1(C)OCc2c(N3CCOC[C@@H]3C)nc(-c3ccc(N)nc3)nc21 [Example 111 hf^1] was run?
Answer: 7.00 and 7.52

Question: How did the pKi [2] turn out when Nc1nc2ccc(-c3nc4c(c(N5C[C@H]6CC[C@@H](C5)O6)n3)CCCO4)cc2[nH]1 [Example 61, 6-(4-((1R,5S)-8-oxa-3-azabicyclo[3.2.1]octan-3-yl)-6,7-dihydro-5H-pyrano[2,3-d]pyrimidin-2-yl)-1H-benzo[d]imidazol-2-amine] was run?
Answer: 7.92

Question: How did the pKi [2] turn out when CC1(C)OCc2c(N3[C@@H]4CC[C@H]3COC4)nc(-c3cnc(N)nc3)nc21 [Example 106, 5-(4-((1R,5S)-3-oxa-8-azabicyclo[3.2.1]octan-8-yl)-7,7-dimethyl-5,7-dihydrofuro[3,4-d]pyrimidin-2-yl)pyrimidin-2-amine] was run?
Answer: 8.00

Question: How did the pKi [2] turn out when CCNC(=O)Nc1ccc(-c2nc3c(c(N4CCOCC4C)n2)C2CCC(C3)O2)cc1 (single isomer, unassigned) [Example 62 do^2] was run?
Answer: 8.22 and 8.70

Question: How did the pKi [2] turn out when CCNC(=O)N(CC)C(=O)Nc1ccc(-c2nc3c(c(N4CCOCC4)n2)CCOC3)cc1 [Example 12, 1-ethyl-1-((ethylamino)carbonyl)-3-(4-(4-morpholino-6,8-dihydro-5H-pyrano[3,4-d]pyrimidin-2-yl)phenyl)urea] was run?
Answer: 5.36

Question: How did the pKi [2] turn out when Nc1ncc(-c2nc3c(c(N4[C@@H]5CC[C@H]4COC5)n2)CCCO3)cn1 [Example 133, 5-(4-((1R,5S)-3-oxa-8-azabicyclo[3.2.1]octan-8-yl)-6,7-dihydro-5H-pyrano[2,3-d]pyrimidin-2-yl)pyrimidin-2-amine] was run?
Answer: 7.01

Question: C[C@H]1COCCN1c1nc(-c2ccc(S(C)(=O)=O)cc2)nc2c1COCC2 [Example 36, (S)-4-(3-methylmorpholino)-2-(4-(methylsulfonyl)phenyl)-7,8-dihydro-5H-pyrano[4,3-d]pyrimidine] was tested. Which pKi [2] did it give?
Answer: 6.99

Question: With CCNC(=O)N(CC)C(=O)Nc1ccc(-c2nc3c(c(N4CCOC[C@@H]4C)n2)CCOC3)cc1 [Example 13 am, (S)-1-ethyl-1-((ethylamino)carbonyl)-3-(4-(4-(3-methylmorpholino)-6,8-dihydro-5H-pyrano[3,4-d]pyrimidin-2-yl)phenyl)urea] as the compound, how does the pKi [2] read?
Answer: 5.93

Question: Nc1ncc(-c2nc3c(c(N4C[C@H]5CC[C@@H](C4)O5)n2)CCCO3)cn1 [Example 131, 5-(4-((1R,5S)-8-oxa-3-azabicyclo[3.2.1]octan-3-yl)-6,7-dihydro-5H-pyrano[2,3-d]pyrimidin-2-yl)pyrimidin-2-amine] was tested. Which pKi [2] did it give?
Answer: 6.97

Question: CCNC(=O)Nc1ccc(-c2nc(N3CCOC[C@@H]3C)c3c(n2)[C@@](C)(CCN2CCOCC2)OC3)cc1 [Example 76 eo (R), 1-ethyl-3-(4-((R)-7-methyl-4-((S)-3-methylmorpholino)-7-(2-morpholinoethyl)-5,7-dihydrofuro[3,4-d]pyrimidin-2-yl)phenyl)urea] was tested. Which pKi [2] did it give?
Answer: 7.82

Question: How did the pKi [2] turn out when COCC[C@]1(C)OCc2c(N3CCOC[C@@H]3C)nc(-c3cnc(N)nc3)nc21 [Example 101 go (S), 5-((S)-7-(2-methoxyethyl)-7-methyl-4-((S)-3-methylmorpholino)-5,7-dihydrofuro[3,4-d]pyrimidin-2-yl)pyrimidin-2-amine] was run?
Answer: 6.41

Question: CNS(=O)(=O)c1ccc(-c2nc3c(c(N4CCOC[C@@H]4C)n2)COCC3)cc1 [Example 37, (S)—N-methyl-4-(4-(3-methylmorpholino)-7,8-dihydro-5H-pyrano[4,3-d]pyrimidin-2-yl)benzenesulfonamide] was tested. Which pKi [2] did it give?
Answer: 6.46

Question: CC1(C)OCc2c(N3CCOCC3)nc(-c3ccc4nc(N)[nH]c4c3)nc21 [Example 118, 6-(7,7-dimethyl-4-morpholino-5,7-dihydrofuro[3,4-d]pyrimidin-2-yl)-1H-benzo[d]imidazol-2-amine] was tested. Which pKi [2] did it give?
Answer: 8.40

Question: COCC[C@@]1(C)OCc2c(N3CCOC[C@@H]3C)nc(-c3cnc(N)nc3)nc21 [Example 101 go (R), 5-((R)-7-(2-methoxyethyl)-7-methyl-4-((S)-3-methylmorpholino)-5,7-dihydrofuro[3,4-d]pyrimidin-2-yl)pyrimidin-2-amine] was tested. Which pKi [2] did it give?
Answer: 6.59

Question: How did the pKi [2] turn out when C[C@H]1COCCN1c1nc(-c2ccc3nc(N)[nH]c3c2)nc2c1COC2(C)C [Example 122, (S)-6-(7,7-dimethyl-4-(3-methylmorpholino)-5,7-dihydrofuro[3,4-d]pyrimidin-2-yl)-1H-benzo[d]imidazol-2-amine] was run?
Answer: 8.15

Question: With C[C@H]1COCCN1c1nc(-c2ccc(NS(C)(=O)=O)cc2)nc2c1COCC2 [Example 38, (S)—N-(4-(4-(3-methylmorpholino)-7,8-dihydro-5H-pyrano[4,3-d]pyrimidin-2-yl)phenyl)methanesulfonamide] as the compound, how does the pKi [2] read?
Answer: 6.57

Question: With COC1CCN(c2nc(-c3ccc(Nc4nccc(=O)[nH]4)cc3)nc3c2CCC2(CC2)O3)CC1 [Example 48, 2-(4-(4′-(4-methoxypiperidin-1-yl)-5′,6′-dihydrospiro[cyclopropane-1,7′-pyrano[2,3-d]pyrimidine]-2′-yl)phenylamino)pyrimidin-4(3H)-one] as the compound, how does the pKi [2] read?
Answer: 6.41

Question: How did the pKi [2] turn out when C[C@H]1COCCN1c1nc(-c2cnc(N)nc2)nc2c1CO[C@]2(C)CCOc1ccccc1 [Example 104 gs (R), 5-((R)-7-methyl-4-((S)-3-methylmorpholino)-7-(2-phenoxyethyl)-5,7-dihydrofuro[3,4-d]pyrimidin-2-yl)pyrimidin-2-amine] was run?
Answer: 6.53

Question: With CCS(=O)(=O)Nc1ccc(-c2nc3c(c(N4CCOC[C@@H]4C)n2)COCC3)cc1 [Example 40, (S)—N-(4-(4-(3-methylmorpholino)-7,8-dihydro-5H-pyrano[4,3-d]pyrimidin-2-yl)phenyl)ethanesulfonamide] as the compound, how does the pKi [2] read?
Answer: 6.74
